Experimental data: US11291712B2, “Bacterial protein compositions and uses thereof” (The United States Government as Represented by the …, priority 2017, dated 2022)
Entries after “also recorded” stand apart in the source; their conditions may differ.

Experiments:
[1] = tested on: A. baumannii strain AB5075 VIR-O and AV-T variants; test: Antimicrobial killing assays (time-kill); type: cell-based, Acinetobacter baumannii; settings: equal mixture of VIR-O and AV-T, 1 hour, CRAMP 10 μg/mL, lysozyme 10 mg/mL, LL-37 15 μg/mL, H2O2 0.01%
Method: An equal mixture of VIR-O and AV-T variants were grown to early-log phase in 2 mL LB broth, or LB with tetracycline 6 μg/mL for strains with plasmids. A 5 μL aliquot of each culture was mixed together in 250 μL of 0.1× tryptone/yeast extract (1 g tryptone, 0.5 g yeast extract/liter). Cells were mixed by vortexing and serial dilutions were plated on 0.5×LB agar plates to assess the initial CFU's for both VIR-O and AV-T variants. Various antimicrobials were then added at the following final concentrations: CRAMP (10 μg/mL), lysozyme (10 mg/mL), LL-37 (15 μg/mL) and H2O2. (0.01%). Cells were treated for 1 hour and dilutions were plated on 0.5×LB agar plates to enumerate the surviving VIR-O and AV-T variants.

[2] = tested on: A. baumannii strain AB5075 VIR-O and AV-T cells; test: Sensitivity to disinfectants; type: cell-based, Acinetobacter baumannii; settings: BZT 0.01%, BAK 0.004%, CHG 0.008%; 30 min at room temperature
Method: Overnight standing bacterial cultures at room temperature were sub-cultured in LB broth and grown at 37° C. with shaking to an OD600˜0.15. Nine hundred ninety microliters of culture were then added to tubes containing 10 μL of the appropriated disinfectants, BZT (Sigma-Aldrich), BAK (Sigma-Aldrich) and CHG (Sigma-Aldrich), respectively. Tubes were incubated at room temperature for 30 min. Cultures were then serially diluted and plated for CFU enumerations.

| Compound | survival of VIR-O (O) cells compared to AV-T (T) cells after treatment with the antimicrobial [1] | survival of VIR-O (O) cells compared to AV-T (T) cells after treatment with the antimicrobial ([1]; listed as hydrogen peroxide) | resistance of VIR-O (O) cells to the disinfectant compared to AV-T (T) cells [2] |
| --- | --- | --- | --- |
| OO [H2O2, hydrogen peroxide] | resistant | VIR-O cells vastly outnumbered AV-T cells | – |
| lysozyme | resistant; also recorded: VIR-O cells vastly outnumbered AV-T cells | – | – |
| LL-37: human antimicrobial peptide, the human orthologue of CRAMP | VIR-O cells also outnumbered AV-T; also recorded: resistant | – | – |
| N=C(NCCCCCCNC(=N)NC(=N)Nc1ccc(Cl)cc1)NC(=N)Nc1ccc(Cl)cc1.O=C(O)[C@H](O)[C@@H](O)[C@H](O)[C@H](O)CO.O=C(O)[C@H](O)[C@@H](O)[C@H](O)[C@H](O)CO [chlorhexidine gluconate] | – | – | more resistant; also recorded: increased resistance |
| benzalkonium chloride | – | – | more resistant; also recorded: increased resistance |
| CRAMP: murine cationic antimicrobial peptide (ISRLAGLLRKGGEKIGEKLKKIGQKIKNFFQKLVPQPE; UniProt P51437 135-172, looked up) | resistant; also recorded: VIR-O cells vastly outnumbered AV-T cells | – | – |
| CC(C)(C)CC(C)(C)c1ccc(OCCOCC[N+](C)(C)Cc2ccccc2)cc1 [benzethonium chloride] | – | – | more resistant; also recorded: increased resistance |
